Key:
[1] = human
[2] = Highest frequency of acute liver toxicity observed during clinical trials, expressed as a percentage. [column '% AIGUE' in source]; settings: human
[3] = human; remark: listed apart in the source
[4] = human, serum
[5] = human; remark: listed apart in the source
[6] = human, serum, 4383 h
[7] = Highest frequency of moderate liver toxicity observed during clinical trials, expressed as a percentage. [column '% BIOL' in source]; settings: human
[8] = human; remark: listed apart in the source
[9] = human, serum; remark: listed apart in the source
[10] = human; remark: listed apart in the source
[11] = human; remark: listed apart in the source
[12] = human; remark: listed apart in the source
[13] = human; remark: listed apart in the source
[14] = human; remark: listed apart in the source
[15] = Times to onset, minimal and maximal, observed in the indexed observations. [column 'DELAI' in source]; settings: human
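Throughout, for Hepatotoxicity (association with vascular disease): count of indexed literature references reporting vascular liver injury in humans, e.g. peliosis hepatitis, hepatic veno-occlusive disease or Budd-Chiari syndrome.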
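Throughout, for Hepatotoxicity (benign tumour): value is a count of indexed literature references citing a benign tumour confirmed by histopathology.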
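Throughout, for Hepatotoxicity (choleostasis): human cholestatic liver injury, shown by histopathology or by peak ALT or AST elevation over alkaline phosphatase ratio below 2, value counts indexed literature reports.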
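Throughout, for Hepatotoxicity (chronic liver disease): chronic liver injury confirmed by histopathology or persistently raised serum aminotransferase activity beyond 6 months, value given as the count of indexed literature references.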
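Throughout, for Hepatotoxicity (cirrhosis): value is a count of indexed literature references reporting cirrhosis confirmed by histopathology.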
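Throughout, for Hepatotoxicity (cytolytic): human cytolytic liver injury, shown by histopathology or by a ratio above 5 of peak ALT or AST elevation to alkaline phosphatase elevation, value counts indexed references.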
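Throughout, for Hepatotoxicity (granulomatous hepatitis): value is a count of indexed literature references reporting granulomatous liver disease confirmed by histopathology.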
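Throughout, for Hepatotoxicity (malignant tumour): malignant tumour confirmed by histopathology, value gives the count of indexed literature references reporting it.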
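Throughout, for Hepatotoxicity (severe hepatitis): human clinical data: severe hepatitis, meaning potentially life-threatening liver failure or clinically observed cases, the value counts how many indexed literature references report it.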
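Throughout, for Hepatotoxicity (steatosis): steatosis confirmed by histopathology, value is the count of indexed references.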

| SMILES | Hepatotoxicity (choleostasis) [1] | Hepatotoxicity (acute) [2] [%] | Hepatotoxicity (malignant tumour) [3] | Hepatotoxicity (moderate) [4] | Hepatotoxicity (benign tumour) [5] | Hepatotoxicity (chronic liver disease) [6] | Hepatotoxicity (moderate) [7] [%] | Hepatotoxicity (cirrhosis) [8] | Hepatotoxicity (acute) [9] | Hepatotoxicity (granulomatous hepatitis) [10] | Hepatotoxicity (cytolytic) [11] | Hepatotoxicity (association with vascular disease) [12] | Hepatotoxicity (steatosis) [13] | Hepatotoxicity (severe hepatitis) [14] | Hepatotoxicity (time to onset) [15] | also measured |
| --- | --- | --- | --- | --- | --- | --- | --- | --- | --- | --- | --- | --- | --- | --- | --- | --- |
| Nc1c2c(nc3ccccc13)CCCC2O (stereo not given) [VELNACRINE] | 0 | 7.3 | 0 | 8 | 0 | 0 | 35 | 0 | 2 | 0 | 2 | 0 | 0 | 0 | 4 weeks - 3 months | – |
| C=CC(N)CCC(=O)O (stereo not given) [VIGABATRIN] | 0 | 0 | 0 | 3 | 0 | 0 | 13.3 | 0 | 2 | 0 | 2 | 0 | 0 | 1 | 9 months | – |
| CCC1=C[C@@H]2CN(C1)Cc1c([nH]c3ccccc13)[C@@](C(=O)OC)(c1cc3c(cc1OC)N(C)[C@H]1[C@@](O)(C(=O)OC)[C@H](OC(C)=O)[C@]4(CC)C=CCN5CC[C@]31[C@@H]54)C2 [VINORELBINE] | 0 | 6 | 0 | 6 | 0 | 0 | 24.1 | 0 | 3 | 0 | 2 | 0 | 0 | 1 | 2 days - 10 days | – |
| CCOC(Nc1ccc(C(=O)O)cc1)C(=O)c1ccc(-c2ccccc2)cc1 (stereo not given) [XENAZOIC ACID] | 0 | 0 | 0 | 0 | 0 | 0 | 0 | 0 | 2 | 0 | 0 | 0 | 0 | 0 | 1 week - 2 weeks | – |
| Nc1ccn([C@H]2CC[C@@H](CO)O2)c(=O)n1 [ZALCITABINE] | – | – | 0 | 5 | 0 | 0 | – | 0 | 4 | – | – | 0 | 2 | – | 3 weeks - 10 months | Hepatotoxicity (choleostasis) ([1]; Liver): 0; Hepatotoxicity (acute) ([2]; Liver): 8.5%; Hepatotoxicity (moderate) ([7]; Liver): 14.9%; Hepatotoxicity (granulomatous hepatitis) ([10]; Liver): 0; Hepatotoxicity (cytolytic) ([11]; Liver): 3; Hepatotoxicity (severe hepatitis) ([14]; Liver): 0 |
| CC(=O)N[C@H]1[C@H]([C@H](O)[C@H](O)CO)OC(C(=O)O)=C[C@@H]1N=C(N)N [ZANAMIVIR] | 0 | 0 | 0 | 2 | 0 | 0 | 14.5 | 0 | 0 | 0 | 0 | 0 | 0 | 0 | 8 days | – |
